Patent US10933032B2, “Methods for the treatment of cancer using coenzyme Q10 combination therapies” (Berg LLC, priority 2013, dated 2021)
“Also recorded” adds a separate entry of the source.

Tests used:
[1] = system: MIAPaCa-2 human pancreatic tumor cells; experiment: Xenogeneic mouse human pancreatic cancer model, survival; assay type: in vivo, NOD scid gamma (NSG) mice; conditions: for Survival (prolongation of life) compared to untreated control: Example 1, Regimen 1, single agent: IV 4% Coenzyme Q10 50 mg/kg/day, or IV gemcitabine 150 mg/kg/week for 3 weeks with one week rest; for Survival, combination of CoQ10 and gemcitabine vs other groups: Example 1, Regimen 1: IV CoQ10 50 mg/kg/day + IV gemcitabine 150 mg/kg weekly for 3 weeks with one week rest
[2] = background statement; cited from earlier work
[3] = system: MIAPaCa2 pancreatic cancer cells; experiment: Proliferation assay (CFSE, flow cytometry); assay type: cell-based, human; conditions: MIAPaca-2; CoQ10 with gemcitabine; FIG. 13
Protocol: FIG. 13 is a graph showing results from proliferation assay in which MIAPaCa2 pancreatic cancer cells were treated with gemcitabine alone or in combination with CoQ10 prior to assessment of proliferation via flow cytometric analysis using the cell tracer dye CFSE which stains live cells. Values are normalized to the number of cells treated with neither CoQ10 nor the chemotherapeutic agent.
Without being bound by mechanism, it is proposed that CoQ10 effectuates a metabolic switch from glycolysis towards enhanced mitochondrial oxidative phosphorylation resulting in the recapitulation of apoptosis in cancer. The effects of CoQ10 were investigated to determine if pretreatment with CoQ10 results in mitochondrial priming, thereby augmenting the cytotoxic effect of standard of care chemotherapeutic agents. MIAPaCa-2 human pancreatic cancer cells were either (a) pretreated with CoQ10 prior to treatment with gemcitabine or (b) co-treated with CoQ10 and gemcitabine.

[4] = system: MDA-MB213 breast cancer cells; experiment: Basal oxygen consumption rate (OCR) and extracellular acidification rate (ECAR); assay type: cell-based; conditions: 100 μM CoQ10 for 24 hours, FIG. 17
Protocol: Cells were treated with 100 μM CoQ10 for 24 hours.
Mitochondria represent a significant source of ROS which are known to participate in activation of cell death pathways.

[5] = system: MIAPaCa-2 pancreatic cancer cells; assay type: cell-based; conditions: CoQ10 (100 μM) pre-treatment (6 hours) and co-treatment regimen, FIGS. 11-14

Compound: COC1=C(OC)C(=O)C(C/C=C(\C)CC/C=C(\C)CC/C=C(\C)CC/C=C(\C)CC/C=C(\C)CC/C=C(\C)CC/C=C(\C)CC/C=C(\C)CC/C=C(\C)CCC=C(C)C)=C(C)C1=O [CoQ10, Coenzyme Q10]
- Survival rate (survival probability) at 300 days ([1]; 50 mg/kg CoQ10, FIG. 30): lowest survival rate
- Survival rate (survival probability) at 300 days ([1]; 100 mg/kg CoQ10, FIG. 30): between the other two treatment groups
- Survival rate (survival probability) at 300 days ([1]; 200 mg/kg CoQ10, FIG. 30): highest survival rate
- Survival, pretreatment with CoQ10 for sixty days followed by gemcitabine+CoQ10 ([1]; CoQ10 200 mg/kg, vs gemcitabine+CoQ10 from the start, gemcitabine or CoQ10 alone, FIG. 31): improved survival in comparison to treatment with gemcitabine+CoQ10 from the start of the treatment regimen; also recorded: improved survival outcomes
- Survival rate (survival probability) at 200 days ([1]; CoQ10 60 days prior to start of gemcitabine and continuing with CoQ10, FIG. 31): highest survival rate
- Responses associated with favorable therapeutic endpoints, most notably an increase in survival ([1]; CoQ10 alone or CoQ10 in combination with doxorubicin, vs gemcitabine or doxorubicin): more effective than gemcitabine or doxorubicin
- Survival rate (survival probability) at 200 days ([1]; CoQ10 from the start (alone), FIG. 31): next highest survival rate
- Survival (prolongation of life) compared to untreated control ([1]; FIG. 1): prolongation of life as compared to untreated control
- Survival (prolongation of life) compared to untreated control ([1]; FIG. 1, listed as Coenzyme Q10): increases survival time of the mice
- Survival, combination of CoQ10 and gemcitabine vs other groups ([1]; FIG. 1): prolonged survival and long-term remission that was statistically significant compared to other groups
- Survival, combination of CoQ10 and gemcitabine vs other groups ([1]; FIG. 1, listed as Coenzyme Q10): more effective at increasing survival time in mice bearing pancreatic tumors than treatment with either agent alone
- Impact on survival, CoQ10 alone vs gemcitabine alone ([1]; Example 1, Regimen 1: IV CoQ10 50 mg/kg/day vs gemcitabine 150 mg/kg/week, FIG. 1): significantly greater impact on survival than gemcitabine alone
- Survival, CoQ10 alone ([1]; Example 2, Regimen 2: 4% CoQ10 intravenous formulation 50 mg/kg intraperitoneally twice daily, 3 weeks with one week rest, vs untreated or gemcitabine alone, FIG. 4): increase in survival
- Survival, CoQ10 in combination with gemcitabine ([1]; Example 2, Regimen 2: CoQ10 50 mg/kg IP twice daily + gemcitabine 150 mg/kg once per week, vs untreated or gemcitabine alone, FIG. 4): increase in survival
- Survival (viability, mortality), CoQ10 in combination with doxorubicin vs doxorubicin alone ([1]; Example 4, once daily dosing with intravenous CoQ10, FIG. 7): decreased mortality rates
- Survival, Coenzyme Q10 alone vs control animals ([1]; Example 5, Regimen 3: IP 4% CoQ10 intravenous formulation 50 or 75 mg/kg/dose, 3 times daily, FIG. 8): significantly increased survival as compared to control animals
- Survival, combination of Coenzyme Q10 and gemcitabine vs same dose of Coenzyme Q10 alone ([1]; Example 5, Regimen 3: IP CoQ10 50 or 75 mg/kg/dose 3 times daily + IV gemcitabine 150 mg/kg weekly for 3 weeks with one week rest, FIG. 8): increased survival as compared to mice treated with the same dose of Coenzyme Q10 alone
- Survival, pretreatment with CoQ10 followed by gemcitabine vs co-treatment regimen ([1]; Example 11, IP CoQ10 75 mg/kg/dose 3 times daily, gemcitabine 150 mg/kg weekly initiated 1-3 weeks later, early time points, FIG. 15): improved survival
- Survival, CoQ10 + gemcitabine vs untreated control ([1]; Example 11, latest time point, FIG. 15): increases the survival in a statistically significant manner as compared to untreated control
- Survival, dose dependence ([1]; Example 17, Regimen 3: 50 mg/kg or 75 mg/kg, FIG. 29): dose dependent increase in survival
- Effect on survival when combined with gemcitabine ([1]; Example 17, Regimen 3, FIG. 29): additive effect to gemcitabine
- Survival rates, continuous infusion of CoQ10 vs three doses (50 mg/kg or 75 mg/kg) ([1]; Example 17, best outcomes at 200 mg/kg, FIG. 30): significantly improved survival rates compared to three doses
- Survival, continuous infusion of CoQ10 at 200 mg/kg vs 50 mg/kg ([1]; FIG. 30): significantly improved survival in comparison to 50 mg/kg CoQ10
- Survival rate (survival probability) at 200 days ([1]; gemcitabine and CoQ10 from the start, FIG. 31): next highest survival rate
- Lipophilicity [2]: very lipophilic
- Solubility in water [2]: insoluble in water
- Proliferation vs gemcitabine alone [3]: decreased proliferation
- Ratio of OCR to ECAR [4]: higher ratio of OCR to ECAR
- Cytotoxic potential of gemcitabine [5]: augmented the cytotoxic potential of gemcitabine
